Read-outs that look alike come from different tables or passages of the source.
How the values were obtained:
Type in all cases: cell-based, human
Renal cancer cell lines = experiment: NCI anticancer screen, SRB assay, panel summary; settings: Homo sapiens
Experimental: (§1) Some of biological activity studies were carried out at the National Cancer Institute (NCI), Maryland, USA.
(§2) The compounds were evaluated for anticancer activity against fifty three human cancer cells derived from nine cancer types (leukemia cell line, non-small-cell lung cell line, colon cell line, CNS cell line, melanoma cell line, ovarian cell line, prostate cell line, and breast cancer cell line) as shown in Table 1. For each compound, dose response curves for each cell line were measured at a minimum of five concentrations at 10 fold dilutions. A protocol of 48 h continuous drug exposure was used and a sulforhodamine B (SRB) protein assay was used to estimate cell viability or growth.

[1] = system: Ovarian cancer cell lines; experiment: NCI anticancer screen, SRB assay, panel summary; settings: Homo sapiens
Experimental: as §1, §2

[2] = system: Leukemia cancer cell lines; experiment: NCI anticancer screen, SRB assay, panel summary; settings: Homo sapiens
Experimental: as §1, §2

Breast cancer cell lines = experiment: NCI anticancer screen, SRB assay, panel summary; settings: Homo sapiens
Experimental: as §1, §2

Colon cancer cell lines = experiment: NCI anticancer screen, SRB assay, panel summary; settings: for GI50: Homo sapiens
Experimental: as §1, §2

CNS cancer cell lines = experiment: NCI anticancer screen, SRB assay, panel summary; settings: for GI50: Homo sapiens
Experimental: as §1, §2

[3] = system: Melanoma cancer cell lines; experiment: NCI anticancer screen, SRB assay, panel summary; settings: for GI50: Homo sapiens
Experimental: as §1, §2

[4] = system: Non-small cell lung cancer cell lines; experiment: NCI anticancer screen, SRB assay, panel summary; settings: Homo sapiens
Experimental: as §1, §2

TD-47D (breast) = experiment: NCI anticancer screen, SRB assay, 48 h; settings: Homo sapiens
Summary of the method: (§3)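 Sulforhodamine B protein assay read cell growth after 48 h of continuous compound exposure. Dose-response curves per cell line used at least five 10-fold-diluted concentrations, within a panel of fifty-three human lines from nine tumour types.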

OVCAR-3 (ovarian) = experiment: NCI anticancer screen, SRB assay, 48 h; settings: Homo sapiens
Summary of the method: as §3

SK-OV-3 (ovarian) = experiment: NCI anticancer screen, SRB assay, 48 h; settings: Homo sapiens
Summary of the method: as §3

SF-268 (CNS) = experiment: NCI anticancer screen, SRB assay, 48 h; settings: Homo sapiens
Summary of the method: as §3

[5] = system: NCI-H460 (non-small cell lung); experiment: NCI anticancer screen, SRB assay, 48 h; settings: Homo sapiens
Summary of the method: as §3

UACC-62 (melanoma) = experiment: NCI anticancer screen, SRB assay, 48 h; settings: Homo sapiens
Summary of the method: as §3

SK-MEL-28 (melanoma) = experiment: NCI anticancer screen, SRB assay, 48 h; settings: Homo sapiens
Summary of the method: as §3

HCT-116 (colon) = experiment: NCI anticancer screen, SRB assay, 48 h; settings: Homo sapiens
Summary of the method: as §3

SW-620 (colon) = experiment: NCI anticancer screen, SRB assay, 48 h; settings: Homo sapiens
Summary of the method: as §3

BT-549 (breast) = experiment: NCI anticancer screen, SRB assay, 48 h; settings: Homo sapiens
Summary of the method: as §3

SF-295 (CNS) = experiment: NCI anticancer screen, SRB assay, 48 h; settings: Homo sapiens
Summary of the method: as §3

UO-31 (renal) = experiment: NCI anticancer screen, SRB assay, 48 h; settings: Homo sapiens
Summary of the method: as §3

SF-539 (CNS) = experiment: NCI anticancer screen, SRB assay, 48 h; settings: Homo sapiens
Summary of the method: as §3

SK-MEL-2 (melanoma) = experiment: NCI anticancer screen, SRB assay, 48 h; settings: Homo sapiens
Summary of the method: as §3

[6] = system: NCI-H522 (non-small cell lung); experiment: NCI anticancer screen, SRB assay, 48 h; settings: Homo sapiens
Summary of the method: as §3

RXF 393 (renal) = experiment: NCI anticancer screen, SRB assay, 48 h; settings: Homo sapiens
Summary of the method: as §3

M14 (melanoma) = experiment: NCI anticancer screen, SRB assay, 48 h; settings: Homo sapiens
Summary of the method: as §3

[7] = 48 h exposure, SRB, read-out: GI50
[8] = read-out: pGI50 (-log of molar concentration causing 50% inhibition of net cell growth) (converted)

SMILES: O=C(/C=C/c1cccc(O)c1)c1cccc(-n2cc(-c3ccc(Cl)cc3)[nH]c2=O)c1 [4f, 4-(4-chlorophenyl)-1-3-[(E)-3-(3-hydroxyphenyl)-2-propenoyl]phenyl-2,3-dihydro-1H-2-imidazolone]
- GI50 (Renal cancer cell lines; Renal panel, log of concentration in mol/L causing 50% inhibition of net cell growth, read-out: mean graph midpoint (MG_MID) of Log10 GI50 (converted)): 1780 nM
- LC50 (Renal cancer cell lines; Renal panel, log of concentration leading to 50% net cell death, read-out: mean graph midpoint (MG_MID) of Log10 LC50 (converted)): 27500 nM
- GI50 (Renal cancer cell lines; eight renal cancer cell lines, exposure at least 48 hrs, read-out: GI50, range over the panel): 550 to 3710 nM
- GI50 ([1]; Ovarian panel, log of concentration in mol/L causing 50% inhibition of net cell growth, read-out: mean graph midpoint (MG_MID) of Log10 GI50 (converted)): 2040 nM
- LC50 ([1]; Ovarian panel, log of concentration leading to 50% net cell death, read-out: mean graph midpoint (MG_MID) of Log10 LC50 (converted)): 46800 nM
- GI50 ([1]; six ovarian cancer cell lines, exposure at least 48 hrs, read-out: GI50, range over the panel): 990 to 4210 nM
- GI50 ([2]; Leukemia panel, log of concentration in mol/L causing 50% inhibition of net cell growth, read-out: mean graph midpoint (MG_MID) of Log10 GI50 (converted)): 794 nM
- LC50 ([2]; Leukemia panel, log of concentration leading to 50% net cell death, read-out: mean graph midpoint (MG_MID) of Log10 LC50 (converted)): 87100 nM
- GI50 ([2]; two leukemia cancer cell lines (RPMI-8226 and K-562), exposure at least 48 hrs, read-out: GI50, range over the panel): 400 to 1550 nM
- GI50 (Breast cancer cell lines; Breast panel, log of concentration in mol/L causing 50% inhibition of net cell growth, read-out: mean graph midpoint (MG_MID) of Log10 GI50 (converted)): 2190 nM
- LC50 (Breast cancer cell lines; Breast panel, log of concentration leading to 50% net cell death, read-out: mean graph midpoint (MG_MID) of Log10 LC50 (converted)): 63100 nM
- GI50 (Breast cancer cell lines; five breast cancer cell lines, exposure at least 48 hrs, read-out: GI50, range over the panel): 1290 to 4000 nM
- mean graph midpoint (MG_MID) of Log10 LC50 (Colon cancer cell lines; Colon panel, log of concentration leading to 50% net cell death): 4.68
- GI50 (Colon cancer cell lines; Colon panel, log of concentration in mol/L causing 50% inhibition of net cell growth, read-out: mean graph midpoint (MG_MID) of Log10 GI50 (converted)): 2340 nM
- GI50 (Colon cancer cell lines; seven colon cancer cell lines, exposure at least 48 hrs, read-out: GI50, range over the panel): 1230 to 13700 nM
- mean graph midpoint (MG_MID) of Log10 LC50 (CNS cancer cell lines; CNS panel, log of concentration leading to 50% net cell death): 4.87
- GI50 (CNS cancer cell lines; CNS panel, log of concentration in mol/L causing 50% inhibition of net cell growth, read-out: mean graph midpoint (MG_MID) of Log10 GI50 (converted)): 1450 nM
- GI50 (CNS cancer cell lines; six CNS cancer cell lines, exposure at least 48 hrs, read-out: GI50, range over the panel): 580 to 1920 nM
- GI50 ([3]; Melanoma panel, log of concentration in mol/L causing 50% inhibition of net cell growth, read-out: mean graph midpoint (MG_MID) of Log10 GI50 (converted)): 2190 nM
- GI50 ([3]; nine melanoma cancer cell lines, exposure at least 48 hrs, read-out: GI50, range over the panel): 1530 to 4070 nM
- mean graph midpoint (MG_MID) of Log10 LC50 ([3]; Melanoma panel, log of concentration leading to 50% net cell death): 4.55
- GI50 ([4]; Non-small cell lung panel, log of concentration in mol/L causing 50% inhibition of net cell growth, read-out: mean graph midpoint (MG_MID) of Log10 GI50 (converted)): 2340 nM
- LC50 ([4]; Non-small cell lung panel, log of concentration leading to 50% net cell death, read-out: mean graph midpoint (MG_MID) of Log10 LC50 (converted)): 57500 nM
- GI50 ([4]; nine non-small cell lung cancer cell lines, exposure at least 48 hrs, read-out: GI50, range over the panel): 1600 to 3550 nM
- GI50 (TD-47D (breast); [7]): 1920 nM
- GI50 (TD-47D (breast); [8]): 1910 nM
- GI50 (OVCAR-3 (ovarian); [7]): 1560 nM
- GI50 (OVCAR-3 (ovarian); [8]): 1550 nM
- GI50 (SK-OV-3 (ovarian); [7]): 4210 nM
- GI50 (SK-OV-3 (ovarian); [8]): 4170 nM
- GI50 (SF-268 (CNS); [7]): 1780 nM
- GI50 (SF-268 (CNS); [8]): 1780 nM
- GI50 [5, 7]: 2410 nM
- GI50 [5, 8]: 2400 nM
- GI50 (UACC-62 (melanoma); [7]): 1850 nM
- GI50 (UACC-62 (melanoma); [8]): 1860 nM
- GI50 (SK-MEL-28 (melanoma); [7]): 3640 nM
- GI50 (SK-MEL-28 (melanoma); [8]): 3630 nM
- GI50 (HCT-116 (colon); [7]): 1230 nM
- GI50 (HCT-116 (colon); [8]): 1230 nM
- GI50 (SW-620 (colon); [7]): 1620 nM
- GI50 (SW-620 (colon); [8]): 1620 nM
- GI50 (BT-549 (breast); [7]): 1450 nM
- GI50 (BT-549 (breast); [8]): 1450 nM
- GI50 (SF-295 (CNS); [7]): 1790 nM
- GI50 (SF-295 (CNS); [8]): 1780 nM
- GI50 (UO-31 (renal); [7]): 550 nM
- GI50 (UO-31 (renal); [8]): 550 nM
- GI50 (SF-539 (CNS); [7]): 1680 nM
- GI50 (SF-539 (CNS); [8]): 1700 nM
- GI50 (SK-MEL-2 (melanoma); [7]): 2070 nM
- GI50 (SK-MEL-2 (melanoma); [8]): 2090 nM
- GI50 [6, 7]: 1650 nM
- GI50 [6, 8]: 1660 nM
- GI50 (RXF 393 (renal); RXF 393, 48 h exposure, SRB, read-out: GI50): 1510 nM
- GI50 (RXF 393 (renal); RXF-393, read-out: pGI50 (-log of molar concentration causing 50% inhibition of net cell growth) (converted)): 1510 nM
- GI50 (M14 (melanoma); [7]): 2010 nM
- GI50 (M14 (melanoma); [8]): 2000 nM
